Laboratory results published in patent US8853230B2, “Inhibitors of JAK” (Portola Pharmaceuticals, Inc., priority 2009, dated 2014).

Tests used:
JAK3 = molecular target: T1, JAK3 (Homo sapiens, UniProt P52333); experiment: Z'-LYTE kinase assay, JAK3 tyrosine phosphorylation activity; format: biochemical
T1 construct: 5 μl of catalytic domain recombinant Kinase enzyme+Tyr peptide substrate (Invitrogen, Calif.); purchased Invitrogen
Method in brief: (§1)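 Inhibition is expressed as substrate phosphorylation relative to inhibitor-free wells, fitted with a 4-parameter logistic model for IC50. Reactions contain catalytic-domain kinase, Tyr6 peptide and ATP, run 1 h at room temperature. Development protease is added for 1 h before fluorescence readout.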

JAK2 = molecular target: T2, JAK2 (Homo sapiens, UniProt O60674); experiment: Z'-LYTE kinase assay, JAK2 tyrosine phosphorylation activity; format: biochemical
T2 construct: 5 μl of catalytic domain recombinant Kinase enzyme+Tyr peptide substrate (Invitrogen, Calif.); purchased Invitrogen
T2 sequence (O60674 849-1124 limits assumed): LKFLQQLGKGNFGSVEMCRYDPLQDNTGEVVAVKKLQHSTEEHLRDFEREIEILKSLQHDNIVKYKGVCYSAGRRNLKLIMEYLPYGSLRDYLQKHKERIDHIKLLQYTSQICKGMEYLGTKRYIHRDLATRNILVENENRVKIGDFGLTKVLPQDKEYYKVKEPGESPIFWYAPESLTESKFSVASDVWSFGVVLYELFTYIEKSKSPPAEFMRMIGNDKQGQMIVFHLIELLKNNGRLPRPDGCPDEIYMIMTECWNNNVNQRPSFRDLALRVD
Method in brief: as §1

[1] = tested on: IL4-induced phospho STAT6 formation in Ramos B lymphocytes; experiment: Inhibition of IL4-induced phospho STAT6 formation in Ramos B lymphocytes (flow cytometry); format: cell-based, human; conditions: Homo sapiens; for inhibition at 0.2 µM: 200 nM compound, read-out: % Inhibition of IL-4 Induced STAT6 Phosphorylation 200 nM; for inhibition at 1 µM: 1 μM compound, read-out: % Inhibition of IL-4 Induced STAT6 Phosphorylation 1 μM
Description: Similar types of assays can be used to assess JAK inhibitory activity and to determine the degree of selectivity of the particular compound as compared to syk. One means of assaying for such inhibition is detection of the effect of the compounds of the present invention on the upregulation of downstream gene products. In the Ramos/IL4 assay, B-cells are stimulated with the cytokine Interleukin-4 (IL-4) leading to the activation of the JAK/Stat pathway through phosphorylation of the JAK family kinases, JAK1 and JAK3, which in turn phosphorylate and activate the transcription factor Stat-6. […] To study the effect of inhibitors (e.g., the 2,4-substituted pyrimindinediamine compounds described herein) on the JAK1 and JAK3, human Ramos B-cells are stimulated with human IL-4. 10′ post-stimulation, cells are subjected to intracellular flow cytometry to measure the extent of STAT-6 phosphorylation. 20 to 24 hours post-stimulation, cells are stained for upregulation of CD23 and analyzed using flow cytometry.
Inhibition of IL4-induced phospho STAT6 formation was measured by pre-incubating 0.5 million Ramos B lymphocytes (ATCC) with 5 μl compound or DMSO vehicle for 1 hour at 37° C./5% CO2. Cells were activated by addition of 1 ng/ml [f]IL4 (R & D Research Systems) for 10 min at 37° C./5% CO2 and then fixed by addition of 1.6% [f]PFA (Electron Microscopy Services). Following a PBS wash step and permaeabilization with 100% methanol, cells were incubated with ALEXA-conjugated anti-phosphoSTAT6 (Y641) antibody (BD 612600). The extent of cell associated-fluorescence was determined by flow cytomentry and data expressed as mean fluorescent intensity. The extent of inhibition of the IL4-induced signal was then calculated.

JAK1 = molecular target: T3, JAK1 (Homo sapiens, UniProt P23458); experiment: Z'-LYTE kinase assay, JAK1 tyrosine phosphorylation activity; format: biochemical; conditions: read-out: JAK 1 IC50
T3 construct: 5 μl of catalytic domain recombinant Kinase enzyme+Tyr peptide substrate (Invitrogen, Calif.); purchased Invitrogen
T3 sequence (P23458 875-1153 limits assumed): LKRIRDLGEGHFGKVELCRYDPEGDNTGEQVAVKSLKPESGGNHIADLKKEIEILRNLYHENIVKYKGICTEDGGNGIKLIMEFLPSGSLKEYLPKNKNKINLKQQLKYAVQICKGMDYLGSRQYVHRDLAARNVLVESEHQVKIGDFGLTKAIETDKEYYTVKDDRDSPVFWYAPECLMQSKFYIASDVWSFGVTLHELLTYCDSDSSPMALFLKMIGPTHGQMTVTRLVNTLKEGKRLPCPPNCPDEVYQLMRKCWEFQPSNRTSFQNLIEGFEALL
Method in brief: as §1

TYK2 = molecular target: T4, TYK2 (Homo sapiens, UniProt P29597); experiment: Z'-LYTE kinase assay, TYK2 tyrosine phosphorylation activity; format: biochemical
T4 construct: 5 μl of catalytic domain recombinant Kinase enzyme+Tyr peptide substrate (Invitrogen, Calif.); purchased Invitrogen
T4 sequence (P29597 897-1176 limits assumed): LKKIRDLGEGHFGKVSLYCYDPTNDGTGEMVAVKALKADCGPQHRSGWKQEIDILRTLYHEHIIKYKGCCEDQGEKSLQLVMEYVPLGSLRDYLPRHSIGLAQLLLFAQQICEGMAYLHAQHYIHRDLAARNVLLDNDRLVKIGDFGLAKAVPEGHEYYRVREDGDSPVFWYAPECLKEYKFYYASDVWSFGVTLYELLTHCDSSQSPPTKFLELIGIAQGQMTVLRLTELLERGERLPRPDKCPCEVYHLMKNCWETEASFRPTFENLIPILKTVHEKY
Method in brief: as §1

T1 sequence (P52333 822-1111 limits assumed): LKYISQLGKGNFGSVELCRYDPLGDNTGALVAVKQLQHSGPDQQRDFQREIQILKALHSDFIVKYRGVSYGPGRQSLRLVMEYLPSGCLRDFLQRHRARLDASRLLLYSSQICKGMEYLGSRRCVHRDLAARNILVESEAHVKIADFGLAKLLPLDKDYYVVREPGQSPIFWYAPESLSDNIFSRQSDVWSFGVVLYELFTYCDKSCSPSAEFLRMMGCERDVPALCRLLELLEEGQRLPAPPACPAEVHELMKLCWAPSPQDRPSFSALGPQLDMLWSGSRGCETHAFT

CNC(=O)Nc1cccc(Nc2ncc(C(N)=O)c(NCc3ccccc3F)n2)c1 [Example 181, 4-(2-fluorobenzylamino)-2-(3-(3-methylureido)phenylamino)pyrimidine-5-carboxamide]
IC50 (JAK3): 1 to 10 nM | IC50 (JAK2): 10 to 100 nM | inhibition at 0.2 µM [1]: 23.7% | inhibition at 1 µM [1]: 38.7% | IC50 (JAK1): 10 to 100 nM | IC50 (TYK2): 1 to 10 nM

NC(=O)c1cnc(Nc2ccc(Cl)c(NC(=O)N3CCOCC3)c2)nc1NCc1ccccc1 [Example 182, N-(5-(4-(benzylamino)-5-carbamoylpyrimidin-2-ylamino)-2-chlorophenyl)morpholine-4-carboxamide]
IC50 (JAK3): 1 to 10 nM | IC50 (JAK2): 10 to 100 nM | inhibition at 0.2 µM [1]: 42.3% | inhibition at 1 µM [1]: 89% | IC50 (JAK1): 10 to 100 nM | IC50 (TYK2): 1 to 10 nM

CC(=O)Nc1cccc(Nc2ncc(C(N)=O)c(NCC3CCNCC3)n2)c1 [Example 190, 2-(3-acetamidophenylamino)-4-(piperidin-4-ylmethylamino)pyrimidine-5-carboxamide]
IC50 (JAK3): 1 to 10 nM | IC50 (JAK2): 10 to 100 nM | inhibition at 0.2 µM [1]: 17% | inhibition at 1 µM [1]: 39.3% | IC50 (JAK1): 10 to 100 nM | IC50 (TYK2): 10 to 100 nM

C[C@@H](Nc1nc(Nc2ccc(Cl)c(NC(N)=O)c2)ncc1C(N)=O)c1ccccc1 [Example 193, (R)-2-(4-chloro-3-ureidophenylamino)-4-(1-phenylethylamino)pyrimidine-5-carboxamide]
IC50 (JAK3): 1 to 10 nM | IC50 (JAK2): 100 to 1000 nM | inhibition at 0.2 µM [1]: 13.7% | inhibition at 1 µM [1]: 51.3% | IC50 (JAK1): 100 to 1000 nM | IC50 (TYK2): 100 to 1000 nM

NC(=O)Nc1cc(Nc2ncc(C(N)=O)c(NCc3ccccc3)n2)ccc1Cl [Example 194, 4-(benzylamino)-2-(4-chloro-3-ureidophenylamino)pyrimidine-5-carboxamide]
IC50 (JAK3): 1 to 10 nM | IC50 (JAK2): 100 to 1000 nM | inhibition at 0.2 µM [1]: 10% | inhibition at 1 µM [1]: 22.7% | IC50 (JAK1): 100 to 1000 nM | IC50 (TYK2): 10 to 100 nM

C[C@@H](Nc1nc(Nc2ccc(Cl)c(NC(=O)N(C)C)c2)ncc1C(N)=O)c1ccccc1 [Example 195, (R)-2-(4-chloro-3-(3,3-dimethylureido)phenylamino)-4-(1-phenylethylamino)pyrimidine-5-carboxamide]
IC50 (JAK3): 1 to 10 nM | IC50 (JAK2): 10 to 100 nM | inhibition at 0.2 µM [1]: 3.3% | inhibition at 1 µM [1]: 27.3% | IC50 (JAK1): 100 to 1000 nM | IC50 (TYK2): 10 to 100 nM

CN(C)C(=O)Nc1cc(Nc2ncc(C(N)=O)c(NCc3ccccc3)n2)ccc1Cl [Example 196, 4-(benzylamino)-2-(4-chloro-3-(3,3-dimethylureido)phenylamino)pyrimidine-5-carboxamide]
IC50 (JAK3): 1 to 10 nM | IC50 (JAK2): 100 to 1000 nM | inhibition at 0.2 µM [1]: 8.3% | inhibition at 1 µM [1]: 65% | IC50 (JAK1): 100 to 1000 nM | IC50 (TYK2): 10 to 100 nM

NC(=O)c1cnc(Nc2cccc(NC(=O)[C@H]3CCCO3)c2)nc1NCc1ccccc1 [Example 202, (R)-4-(benzylamino)-2-(3-(tetrahydrofuran-2-carboxamido)phenylamino)pyrimidine-5-carboxamide]
IC50 (JAK3): 1 to 10 nM | IC50 (JAK2): 10 to 100 nM | inhibition at 0.2 µM [1]: 23.5% | inhibition at 1 µM [1]: 48.5% | IC50 (JAK1): 10 to 100 nM | IC50 (TYK2): 1 to 10 nM

NC(=O)c1cnc(Nc2cccc(NC(=O)C3CCOC3)c2)nc1NCc1ccccc1 (stereo not drawn) [Example 203, 4-(benzylamino)-2-(3-(tetrahydrofuran-3-carboxamido)phenylamino)pyrimidine-5-carboxamide]
IC50 (JAK3): 1 to 10 nM | IC50 (JAK2): 10 to 100 nM | inhibition at 0.2 µM [1]: 80% | inhibition at 1 µM [1]: 106% | IC50 (JAK1): 10 to 100 nM | IC50 (TYK2): 1 to 10 nM

NC(=O)c1cnc(Nc2cccc(NC(=O)[C@@H]3CCCO3)c2)nc1NCc1cccc(F)c1 [Example 208, (S)-4-(3-fluorobenzylamino)-2-(3-(tetrahydrofuran-2-carboxamido)phenylamino)pyrimidine-5-carboxamide]
IC50 (JAK3): 1 to 10 nM | IC50 (JAK2): 10 to 100 nM | inhibition at 0.2 µM [1]: 22.7% | inhibition at 1 µM [1]: 67.7% | IC50 (JAK1): 10 to 100 nM | IC50 (TYK2): 10 to 100 nM

NC(=O)c1cnc(Nc2ccc(Cl)c(NC(=O)N3CCCCC3)c2)nc1NCc1ccccc1 [Example 209, 4-(benzylamino)-2-(4-chloro-3-(piperidine-1-carboxamido)phenylamino)pyrimidine-5-carboxamide]
IC50 (JAK3): 1 to 10 nM | IC50 (JAK2): > 1000 nM | inhibition at 0.2 µM [1]: 0.3% | inhibition at 1 µM [1]: 1% | IC50 (JAK1): > 1000 nM | IC50 (TYK2): 100 to 1000 nM

CN(C)[C@@H]1CCN(C(=O)Nc2cccc(Nc3ncc(C(N)=O)c(NCc4ccccc4)n3)c2)C1 [Example 210, (R)-4-(benzylamino)-2-(3-(3-(dimethylamino)pyrrolidine-1-carboxamido)phenylamino)pyrimidine-5-carboxamide]
IC50 (JAK3): 1 to 10 nM | IC50 (JAK2): 10 to 100 nM | inhibition at 0.2 µM [1]: 48% | inhibition at 1 µM [1]: 81.7% | IC50 (JAK1): 10 to 100 nM | IC50 (TYK2): 1 to 10 nM

CC(=O)Nc1cccc(Nc2cc(NCc3ccccc3)c(C(N)=O)cn2)c1 [Example 213, 6-(3-acetamidophenylamino)-4-(benzylamino)nicotinamide]
IC50 (JAK3): 10 to 100 nM | IC50 (JAK2): 100 to 1000 nM | inhibition at 0.2 µM [1]: 11.3% | inhibition at 1 µM [1]: 35.3% | IC50 (JAK1): 100 to 1000 nM | IC50 (TYK2): 100 to 1000 nM

CN1CCN(C(=O)Nc2cccc(Nc3ncc(C(N)=O)c(NCc4ccccc4)n3)c2)CC1 [Example 216, 4-(benzylamino)-2-(3-(4-methylpiperazine-1-carboxamido)phenylamino)pyrimidine-5-carboxamide]
IC50 (JAK3): < 1 nM | IC50 (JAK2): 10 to 100 nM | inhibition at 0.2 µM [1]: 57.3% | inhibition at 1 µM [1]: 91% | IC50 (JAK1): 10 to 100 nM | IC50 (TYK2): 1 to 10 nM

NC(=O)c1cnc(Nc2cccc(NC(=O)N3CCOCC3)c2)nc1NCc1ccccc1 [Example 217, N-(3-(4-(benzylamino)-5-carbamoylpyrimidin-2-ylamino)phenyl)morpholine-4-carboxamide]
IC50 (JAK3): 1 to 10 nM | IC50 (JAK2): 10 to 100 nM | inhibition at 0.2 µM [1]: 61.3% | inhibition at 1 µM [1]: 92% | IC50 (JAK1): 10 to 100 nM | IC50 (TYK2): 1 to 10 nM

NC(=O)c1cnc(Nc2cccc(NC(=O)N3CCCCC3)c2)nc1NCc1ccccc1 [Example 218, 4-(benzylamino)-2-(3-(piperidine-1-carboxamido)phenylamino)pyrimidine-5-carboxamide]
IC50 (JAK3): 1 to 10 nM | IC50 (JAK2): 10 to 100 nM | inhibition at 0.2 µM [1]: 28.7% | inhibition at 1 µM [1]: 76% | IC50 (JAK1): 10 to 100 nM | IC50 (TYK2): 1 to 10 nM

C[C@@H](Nc1nc(Nc2ccc(Cl)c(NC(=O)N3CCCC3)c2)ncc1C(N)=O)c1ccccc1 [Example 221, (R)-2-(4-chloro-3-(pyrrolidine-1-carboxamido)phenylamino)-4-(1-phenylethylamino)pyrimidine-5-carboxamide]
IC50 (JAK3): 10 to 100 nM | IC50 (JAK2): 100 to 1000 nM | inhibition at 0.2 µM [1]: 2.3% | inhibition at 1 µM [1]: 6.3% | IC50 (JAK1): > 1000 nM | IC50 (TYK2): 100 to 1000 nM

NC(=O)c1cnc(Nc2cccc(NC(=O)N3CCC3)c2)nc1NCc1ccccc1 [Example 222, 2-(3-(azetidine-1-carboxamido)phenylamino)-4-(benzylamino)pyrimidine-5-carboxamide]
IC50 (JAK3): 1 to 10 nM | IC50 (JAK2): 10 to 100 nM | inhibition at 0.2 µM [1]: 47.7% | inhibition at 1 µM [1]: 86.7% | IC50 (JAK1): 10 to 100 nM | IC50 (TYK2): 1 to 10 nM

NC(=O)c1cnc(Nc2ccc(Cl)c(NC(=O)N3CCC3)c2)nc1NCc1ccccc1 [Example 233, 2-(3-(azetidine-1-carboxamido)-4-chlorophenylamino)-4-(benzylamino)pyrimidine-5-carboxamide]
IC50 (JAK3): 1 to 10 nM | IC50 (JAK2): 100 to 1000 nM | inhibition at 0.2 µM [1]: 7% | inhibition at 1 µM [1]: 37.7% | IC50 (JAK1): 100 to 1000 nM | IC50 (TYK2): 10 to 100 nM

NC(=O)c1cnc(Nc2ccc(F)c(NC(=O)N3CCC3)c2)nc1NCc1ccccc1 [Example 234, 2-(3-(azetidine-1-carboxamido)-4-fluorophenylamino)-4-(benzylamino)pyrimidine-5-carboxamide]
IC50 (JAK3): 1 to 10 nM | IC50 (JAK2): 10 to 100 nM | inhibition at 0.2 µM [1]: 34.3% | inhibition at 1 µM [1]: 77% | IC50 (JAK1): 10 to 100 nM | IC50 (TYK2): 10 to 100 nM
